Laboratory results published in patent US12370352B2, “Nasal and ophthalmic delivery of aqueous corticosteroid solutions” (CyDex Pharmaceuticals, Inc., priority 2007, dated 2025).

What was measured:
[1] = 72 h
[2] = format: binding
Protocol: A composition of the invention can comprise SAE-CD, corticosteroid, aqueous liquid carrier, and an antihistamine. In some embodiments, the composition contains SAE-CD, budesonide, water (or aqueous buffer) and azelastine. Example 14 details the preparation of such a composition. Other solutions of azelastine in buffer with varying amounts of SAE-CD, in the absence of budesonide, were prepared and scanned by UV Spectrometer. The change in absorption as a function of SAE-CD concentration was plotted and used to determine the equilibrium binding constant of azelastine with SAE-CD, according to the Benesi-Hildebrand equation. […] The binding constant for budesonide under similar conditions was determined to be about 1000; therefore, azelastine will compete with budesonide, or another corticosteroid, for binding to SAE-CD. Accordingly, the amount of SAE-CD present can be increased to permit complete dissolution of both drugs.
(§1) The equilibrium binding constant of the corticosteroid can change when a second active agent is present in a composition of the invention. Since azelastine hydrochloride (AZ-HCl) has an approximately 10-fold higher binding constant for SBE-β-CD than does budesonide (BUD), the amount of SBE-β-CD present in an aqueous composition of the three needs to be sufficient to solubilize both drugs. Example 19 details a procedure for determination of the phase solubility of budesonide in the presence of varying amounts of azelastine. The results are depicted in FIGS. 11A (for SBE-β-CD) and 11B (for SBE-β-CD and SBE-γ-CD). […] FIG. 11B is a chart of the phase solubility of BUD as a function of SBE-β-CD or SBE-γ-CD concentration in solution using various different concentrations of AZ-HCl (1.00-2.75 mg.mL). […] Thus, increasing the amount of AZ-HCl in the solution decreases the overall solubility of BUD. […] Therefore, it is advantageous to prepare solution compositions of these combinations using SBE-γ-CD due to the efficiency of interaction so as to require less of one SAExCD versus another different SAEyCD to solubilize similar amounts of actives in the presence of each other.

[3] = format: binding; remark: listed apart in the source
Text: as §1

[4] = pH and temperature stability of azelastine with and without CAPTISOL (Example 16); format: physicochemical; conditions: sixteen weeks, 25, 40, 60° C., pH 4, 5, 6
Text: SAE-CD is also capable of stabilizing a second active agent included in the composition. Example 16 details a procedure for evaluating the stability of azelastine in the presence of SAE-CD at varying temperatures and in solutions of different pH's. The results are depicted in FIGS. 10A to 10C. The SAE-CD stabilized the azelastine for the period of sixteen weeks regardless of the temperature or pH of the solution. The lower the temperature, the greater the stabilization.
The pH and temperature stability of an aqueous liquid composition comprising SAE-CD, azelastine, and buffer were determined as follows.
Stock citrate solutions (sodium citrate (3 mM) and citric acid solution (3 mM); 500 mL each) were prepared. The citrate solutions were combined and titrated to prepare stock buffered solutions (at least 150 mL each) having a pH of 4, 5, or 6. A stock solution of azelastine hydrochloride (5 mg/mL) in water was prepared. Assay solutions comprising CAPTISOL, azelastine and buffer were prepared by mixing CAPTISOL (1.4 g) and stock solution of azelastine (7.5 mL) in stock buffered solution (QS to final volume of 75 mL for each different pH). Assay solutions comprising azelastine and buffer were prepared by mixing stock solution of azelastine (7.5 mL) and stock buffered solution (67.5 mL, or QS to final volume of 75 mL). […]

Steroid solubility (intrinsic) [1] [µM]	Equilibrium complex stability constant with SBE-β-CD [2] [M⁻¹]	Equilibrium complex stability constant with SBE-β-CD relative to SBE-γ-CD [2]	Equilibrium binding constant with CAPTISOL ([2]; pH 4.5)	Equilibrium complex stability constant with SBE-γ-CD [3] [M⁻¹]	Compound	Stability in the presence of SAE-CD [4]
0					C[C@@H]1C[C@H]2[C@@H]3CCC4=CC(=O)C=C[C@]4(C)[C@@]3(Cl)[C@@H](O)C[C@]2(C)[C@@]1(O)C(=O)CCl [Mometasone, mometasone]	
	~10000	about 5 times	approximately 10,000	2200	CN1CCCC(n2nc(Cc3ccc(Cl)cc3)c3ccccc3c2=O)CC1 (stereo not drawn) [azelastine, 4-[(4-chlorophenyl)methyl]-2-(1-methylazepan-4-yl)-phthalazin-1-one]	stabilized
